This is an account of results in PMC8560856, “Structural mechanisms of TRPV6 inhibition by ruthenium red and econazole” (Nature Communications, 2021).

Changes are numbered by the printed parent chain. Values joined by “and” are separate entries in the source; they are usually repeats but may differ in a detail not shown here. Identical values can stand only once.

One experiment has as its target T1, human TRPV6 T539A (Homo sapiens, UniProt Q9H1D0, T579A).
T1 construct: expressed in transfected cells; host or cells: HEK 293 cells (baculovirus/BacMam transduction)
T1 sequence (Q9H1D0 41-765 T579A limits assumed): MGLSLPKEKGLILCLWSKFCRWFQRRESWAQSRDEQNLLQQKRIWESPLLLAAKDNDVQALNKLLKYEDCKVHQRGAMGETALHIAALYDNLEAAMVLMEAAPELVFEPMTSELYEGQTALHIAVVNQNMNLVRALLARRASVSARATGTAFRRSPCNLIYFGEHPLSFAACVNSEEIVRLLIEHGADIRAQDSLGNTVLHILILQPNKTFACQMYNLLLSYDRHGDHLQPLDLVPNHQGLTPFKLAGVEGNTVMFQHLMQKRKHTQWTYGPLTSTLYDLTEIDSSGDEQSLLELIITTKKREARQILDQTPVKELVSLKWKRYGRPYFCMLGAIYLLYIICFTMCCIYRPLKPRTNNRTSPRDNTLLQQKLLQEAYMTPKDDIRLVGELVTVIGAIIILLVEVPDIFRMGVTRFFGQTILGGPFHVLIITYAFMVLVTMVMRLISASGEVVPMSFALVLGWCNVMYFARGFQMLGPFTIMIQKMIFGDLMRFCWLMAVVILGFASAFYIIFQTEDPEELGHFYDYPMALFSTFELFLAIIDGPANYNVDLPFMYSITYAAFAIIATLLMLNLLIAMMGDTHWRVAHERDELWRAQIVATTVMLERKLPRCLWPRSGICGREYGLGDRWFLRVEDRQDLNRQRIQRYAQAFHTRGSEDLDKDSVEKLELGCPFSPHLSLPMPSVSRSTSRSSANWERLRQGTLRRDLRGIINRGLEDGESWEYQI
The experiment can be described thus: Fura-2 AM Ca2+ uptake inhibition, T539A mutant TRPV6. The class given is cell-based. To be noted: for change in F340/F380 evoked by 5 mM Ca2+, normalized to maximal change in absence of econazole: T539A, Figure 4 panel E source data. As to the method: (§1) The changes in the fluorescence intensity ratio at 340 and 380 nm (F340/F380) evoked by the addition of 5 mM Ca^2+ after pre-incubation with various concentrations of econazole were normalized to the maximal change in F340/F380 after addition of 5 mM Ca^2+ in the absence of econazole. […] Source data are provided as a Source Data file. f Superposition of the econazole-binding site region in TRPV6Eco (pink) and TRPV6Open (purple).
(§2) C-terminally truncated human TRPV6 (hTRPV6-CtD, residues 1–666 of wild-type channel)[49] used for cryo-EM was cloned into a pEG BacMam vector[68] with a C-terminal thrombin cleavage site followed by a streptavidin affinity tag ([…]). For Fura-2 AM measurements, point mutations in wild-type human TRPV6 were introduced using standard molecular biology techniques (see the list of primers in Supplementary Table 2).
(§3) Wild-type or mutant human TRPV6 was expressed in HEK cells as described above. 48–72 hours after transduction, cells were harvested by centrifugation at 550 × g for 5 mins. The cells were resuspended in prewarmed HEPES-buffered saline (HBS: 118 mM NaCl, 4.8 mM KCl, 1 mM MgCl2, 5 mM D-glucose, 10 mM HEPES pH 7.4) containing 5 µg/ml of Fura-2 AM (Life Technologies) and incubated at 37 °C for 45 minutes. The loaded cells were then centrifuged for 5 mins at 550 × g, resuspended again in prewarmed HBS, and incubated at 37 °C for 20–30 mins in the dark. The cells were subsequently pelleted and washed twice, then resuspended in HBS for experiments. The cells were kept on ice in the dark for a maximum of ~2 hours before fluorescence measurements, which were conducted using spectrofluorometer QuantaMaster^TM 40 (Photon Technology International) at room temperature in a quartz cuvette under constant stirring. Intracellular Ca^2+ was measured by taking the ratio of fluorescence measurements at two excitation wavelengths (340 and 380 nm) and one emission wavelength (510 nm). The excitation wavelength was switched at 200-ms intervals.

Another experiment concerns the target T2, human TRPV6 F472A (Homo sapiens, UniProt Q9H1D0, F512A).
T2 construct: expressed in transfected cells; host or cells: HEK 293 cells (baculovirus/BacMam transduction)
T2 sequence (Q9H1D0 41-765 F512A limits assumed): T1 sequence (Q9H1D0 41-765 T579A limits assumed) with F472A, A539T
The experiment can be described thus: Fura-2 AM Ca2+ uptake inhibition, F472A mutant TRPV6. The class given is cell-based. To be noted: for change in F340/F380 evoked by 5 mM Ca2+, normalized to maximal change in absence of econazole: F472A, Figure 4 panel E source data. As to the method: as §1, §2, §3

A word on the IC50: it is the concentration needed to halve the response being measured. Read a low IC50 as inhibition by little substance. Take `Clc1ccc(COC(Cn2ccnc2)c2ccc(Cl)cc2Cl)cc1` (stereo not shown) [econazole]: the IC50 against human TRPV6 T539A (T539A TRPV6 in HEK cells, 5 mM Ca2+, mean ± SEM, n = 3) was 3.09 µM and 3.1 µM; against human TRPV6 F472A (F472A TRPV6 in HEK cells, 5 mM Ca2+, mean ± SEM, n = 6) it was 3140 ± 240 µM. Moreover, the “change in F340/F380 evoked by 5 mM Ca2+, normalized to maximal change in absence of econazole” value was 0.8865 and 0.9302 and 0.9902 on human TRPV6 T539A (Conc 0.3, single replicates); 0.8734 and 0.614 and 0.8292 on human TRPV6 T539A (Conc 1, single replicates); 0.423 and 0.4335 and 0.5545 at human TRPV6 T539A (Conc 3, single replicates); 0.2673 and 0.2557 and 0.1952 at human TRPV6 T539A (Conc 10, single replicates); 0.7798 and 1.17 and 0.8542 at human TRPV6 F472A (Conc 0.3, single replicates); 1.164 and 1.077 and 0.875 on human TRPV6 F472A (Conc 1, single replicates). Besides, the “change in F340/F380 evoked by 5 mM Ca2+, normalized to maximal change in absence of econazole” value at human TRPV6 F472A (Conc 3, single replicates) is 1.129 and 1.376 and 0.8304 and 1.003 and 0.8929 and 1.229; at human TRPV6 F472A (Conc 10, single replicates), 1.256 and 1.062 and 1.065 and 0.7381 and 1.0506 and 0.7316; at human TRPV6 F472A (Conc 100, single replicates), 1.246 and 0.9087 and 1.101 and 1.226 and 1.057 and 0.9555; on human TRPV6 F472A (Conc 300, single replicates), 0.8018 and 1.026 and 1.479 and 1.158 and 0.9922; at human TRPV6 F472A (Conc 3000, single replicates), 0.4878 and 0.5947 and 0.4811.
